Laboratory results reported in US6737383B1, “Herbicidal oxadiazolidines” (priority 1999, dated 2004).

Experiments:
surinam grass = assay: Test B pre/postemergence surinam grass; type: in vivo, Brachiaria decumbens
Method in brief: (§1)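 Response is a visual 0-to-10 score relative to untreated plants, where 0 means no effect and 10 means complete control, taken twelve to sixteen days after application. Treatments went onto soil at planting and onto foliage of 1- to 4-leaf plants, using a surfactant-containing non-phytotoxic solvent.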

giant foxtail = assay: Test B pre/postemergence giant foxtail; type: in vivo, Setaria faberii
Method in brief: as §1

blackgrass = assay: Test B pre/postemergence blackgrass; type: in vivo, Alopecurus myosuroides
Method in brief: as §1

sugar beet = assay: Test B pre/postemergence sugar beet; type: in vivo, Beta vulgaris
Method in brief: as §1

bedstraw = assay: Test B pre/postemergence bedstraw; type: in vivo, Galium aparine
Method in brief: as §1

crabgrass = assay: Test B pre/postemergence crabgrass; type: in vivo, Digitaria sanguinalis
Method in brief: as §1

corn = assay: Test B pre/postemergence corn; type: in vivo, Zea mays
Method in brief: as §1

soybean = assay: Test B pre/postemergence soybean; type: in vivo, Glycine max
Method in brief: as §1

rape = assay: Test B pre/postemergence rape; type: in vivo, Brassica napus
Method in brief: as §1

pigweed = assay: Test B pre/postemergence pigweed; type: in vivo, Amaranthus retroflexus
Method in brief: as §1

purple nutsedge = assay: Test B pre/postemergence purple nutsedge; type: in vivo, Cyperus rotundus
Method in brief: as §1

wheat = assay: Test B pre/postemergence wheat; type: in vivo, Triticum aestivum
Method in brief: as §1

wild oat = assay: Test B pre/postemergence wild oat; type: in vivo, Avena fatua
Method in brief: as §1

velvetleaf = assay: Test B pre/postemergence velvetleaf; type: in vivo, Abutilon theophrasti
Method in brief: as §1

cocklebur = assay: Test B pre/postemergence cocklebur; type: in vivo, Xanthium strumarium
Method in brief: as §1

morningglory = assay: Test B pre/postemergence morningglory; type: in vivo, Ipomoea hederacea
Method in brief: as §1

[1] = Postemergence, Rate 62 g/ha, scale of 0 to 10, 0 is no effect, 10 is complete control
[2] = Postemergence, Rate 125 g/ha, scale 0 to 10, 0 is no effect, 10 is complete control
[3] = Postemergence, Rate 500 g/ha, scale of 0 to 10 where 0 is no effect and 10 is complete control
[4] = Preemergence, Rate 62 g/ha, scale 0 to 10 (0 no effect, 10 complete control)
[5] = Preemergence, Rate 125 g/ha, scale 0 to 10, 0 is no effect, 10 is complete control
[6] = Preemergence, Rate 500 g/ha, scale of 0 to 10 where 0 is no effect and 10 is complete control
[7] = Rate 250 g/ha, Postemergence, scale of 0 to 10 where 0 is no effect and 10 is complete control

With `CCOCn1c(=O)on(C(=O)N(c2ccccc2)C(C)C)c1=O` [Compound 563] the “B. signalgrass plant response rating” value (surinam grass; [1]) was 0, the “B. signalgrass plant response rating” value (surinam grass; [2]) was 4 and the “Plant response rating, B. signalgrass” value (surinam grass; [3]) was 7. The “B. signalgrass plant response rating” value (surinam grass; [4]) was 3, the “B. signalgrass plant response rating” value (surinam grass; [5]) was 9 and the “B. signalgrass plant response rating (0 to 10 scale, 0 is no effect, 10 is complete control)” value (surinam grass; Preemergence, Rate 250 g/ha) was 9. For the same compound, the “B. signalgrass plant response rating” value (surinam grass; [6]) was 10, the “Plant response rating, B. signalgrass” value (surinam grass; [7]) was 5 and the “Giant foxtail plant response rating” value (giant foxtail; [1]) was 6. For the same compound, the “Giant foxtail plant response rating” value (giant foxtail; [2]) was 8, the “Plant response rating, Giant foxtail” value (giant foxtail; [3]) was 9 and the “Giant foxtail plant response rating” value (giant foxtail; [4]) was 9. The “Giant foxtail plant response rating” value (giant foxtail; [5]) was 9, the “Giant foxtail plant response rating (0 to 10 scale)” value (giant foxtail; Preemergence, Rate 250 g/ha) was 10 and the “Giant foxtail plant response rating” value (giant foxtail; [6]) was 10. The “Plant response rating, Giant foxtail” value (giant foxtail; [7]) was 8, the “Blackgrass plant response rating” value (blackgrass; [1]) was 0 and the “Blackgrass plant response rating” value (blackgrass; [2]) was 0. For the same compound, the “Plant response rating, Blackgrass” value (blackgrass; [3]) was 4, the “Blackgrass plant response rating” value (blackgrass; [4]) was 2 and the “Blackgrass plant response rating” value (blackgrass; [5]) was 8. The “Blackgrass plant response rating (0 to 10 scale)” value (blackgrass; Preemergence, Rate 250 g/ha) was 9, the “Blackgrass plant response rating” value (blackgrass; [6]) was 9 and the “Plant response rating, Blackgrass” value (blackgrass; [7]) was 4. The “Sugarbeets plant response rating” value (sugar beet; [1]) was 0, the “Plant response rating, Sugarbeets” value (sugar beet; [3]) was 0 and the “Sugarbeets plant response rating” value (sugar beet; [4]) was 2. For the same compound, the “Sugarbeets plant response rating” value (sugar beet; [5]) was 3, the “Sugarbeets plant response rating (0 to 10 scale)” value (sugar beet; Preemergence, Rate 250 g/ha) was 3 and the “Sugarbeets plant response rating” value (sugar beet; [6]) was 4. For the same compound, the “Plant response rating, Sugarbeets” value (sugar beet; [7]) was 0, the “Bedstraw plant response rating” value (bedstraw; [1]) was 0 and the “Bedstraw plant response rating” value (bedstraw; [2]) was 0. The “Plant response rating, Bedstraw” value (bedstraw; [3]) was 0, the “Bedstraw plant response rating” value (bedstraw; [4]) was 0 and the “Bedstraw plant response rating” value (bedstraw; [5]) was 0. The “Bedstraw plant response rating (0 to 10 scale)” value (bedstraw; Preemergence, Rate 250 g/ha) was 0, the “Bedstraw plant response rating” value (bedstraw; [6]) was 0 and the “Crabgrass plant response rating” value (crabgrass; [1]) was 9. The “Crabgrass plant response rating” value (crabgrass; [2]) was 9, the “Plant response rating, Crabgrass” value (crabgrass; [3]) was 9 and the “Crabgrass plant response rating” value (crabgrass; [4]) was 8. The “Crabgrass plant response rating” value (crabgrass; [5]) was 9, the “Crabgrass plant response rating (0 to 10 scale)” value (crabgrass; Preemergence, Rate 250 g/ha) was 10 and the “Crabgrass plant response rating” value (crabgrass; [6]) was 9. For the same compound, the “Plant response rating, Crabgrass” value (crabgrass; [7]) was 8, the “Corn plant response rating” value (corn; [1]) was 0 and the “Corn plant response rating” value (corn; [2]) was 0. The “Plant response rating, Corn” value (corn; [3]) was 8, the “Corn plant response rating” value (corn; [4]) was 0 and the “Corn plant response rating” value (corn; [5]) was 0. For the same compound, the “Corn plant response rating (0 to 10 scale)” value (corn; Preemergence, Rate 250 g/ha) was 4, the “Corn plant response rating” value (corn; [6]) was 9 and the “Plant response rating, Corn” value (corn; [7]) was 4. The “Soybean plant response rating” value (soybean; [1]) was 5, the “Plant response rating, Soybean” value (soybean; [3]) was 5 and the “Soybean plant response rating” value (soybean; [4]) was 0. For the same compound, the “Soybean plant response rating” value (soybean; [5]) was 0, the “Soybean plant response rating (0 to 10 scale)” value (soybean; Preemergence, Rate 250 g/ha) was 3 and the “Soybean plant response rating” value (soybean; [6]) was 6. The “Plant response rating, Soybean” value (soybean; [7]) was 3, the “Rape plant response rating” value (rape; [1]) was 0 and the “Rape plant response rating” value (rape; [2]) was 0. The “Plant response rating, Rape” value (rape; [3]) was 5, the “Rape plant response rating” value (rape; [4]) was 0 and the “Rape plant response rating” value (rape; [5]) was 4. For the same compound, the “Rape plant response rating (0 to 10 scale)” value (rape; Preemergence, Rate 250 g/ha) was 9, the “Rape plant response rating” value (rape; [6]) was 9 and the “Plant response rating, Rape” value (rape; [7]) was 5. For the same compound, the “Redroot pigweed plant response rating” value (pigweed; [1]) was 0, the “Plant response rating, Redroot pigweed” value (pigweed; [3]) was 5 and the “Redroot pigweed plant response rating” value (pigweed; [4]) was 4. For the same compound, the “Redroot pigweed plant response rating” value (pigweed; [5]) was 9, the “Redroot pigweed plant response rating (0 to 10 scale)” value (pigweed; Preemergence, Rate 250 g/ha) was 9 and the “Redroot pigweed plant response rating” value (pigweed; [6]) was 9. The “Plant response rating, Redroot pigweed” value (pigweed; [7]) was 5, the “Nutsedge plant response rating” value (purple nutsedge; [1]) was 0 and the “Nutsedge plant response rating” value (purple nutsedge; [2]) was 0. The “Nutsedge plant response rating” value (purple nutsedge; [4]) was 0, the “Nutsedge plant response rating” value (purple nutsedge; [5]) was 0 and the “Nutsedge plant response rating (0 to 10 scale)” value (purple nutsedge; Preemergence, Rate 250 g/ha) was 0. The “Plant response rating, Nutsedge” value (purple nutsedge; [7]) was 0, the “Wheat plant response rating” value (wheat; [1]) was 0 and the “Plant response rating, Wheat” value (wheat; [3]) was 0. For the same compound, the “Wheat plant response rating” value (wheat; [4]) was 3, the “Wheat plant response rating” value (wheat; [5]) was 8 and the “Wheat plant response rating (0 to 10 scale)” value (wheat; Preemergence, Rate 250 g/ha) was 9. For the same compound, the “Wheat plant response rating” value (wheat; [6]) was 10, the “Plant response rating, Wheat” value (wheat; [7]) was 0 and the “Wild oats plant response rating” value (wild oat; [1]) was 0. For the same compound, the “Plant response rating, Wild oats” value (wild oat; [3]) was 0, the “Wild oats plant response rating” value (wild oat; [4]) was 2 and the “Wild oats plant response rating” value (wild oat; [5]) was 9. The “Wild oats plant response rating (0 to 10 scale)” value (wild oat; Preemergence, Rate 250 g/ha) was 9, the “Wild oats plant response rating” value (wild oat; [6]) was 10 and the “Plant response rating, Wild oats” value (wild oat; [7]) was 0. For the same compound, the “Velvetleaf plant response rating” value (velvetleaf; [1]) was 0, the “Plant response rating, Velvetleaf” value (velvetleaf; [3]) was 4 and the “Velvetleaf plant response rating” value (velvetleaf; [4]) was 3. For the same compound, the “Velvetleaf plant response rating” value (velvetleaf; [5]) was 3, the “Velvetleaf plant response rating (0 to 10 scale)” value (velvetleaf; Preemergence, Rate 250 g/ha) was 6 and the “Velvetleaf plant response rating” value (velvetleaf; [6]) was 7. For the same compound, the “Plant response rating, Velvetleaf” value (velvetleaf; [7]) was 2, the “Cocklebur plant response rating” value (cocklebur; [1]) was 0 and the “Cocklebur plant response rating” value (cocklebur; [2]) was 0. For the same compound, the “Plant response rating, Cocklebur” value (cocklebur; [3]) was 2, the “Cocklebur plant response rating” value (cocklebur; [4]) was 0 and the “Cocklebur plant response rating” value (cocklebur; [5]) was 0. For the same compound, the “Cocklebur plant response rating (0 to 10 scale)” value (cocklebur; Preemergence, Rate 250 g/ha) was 0, the “Cocklebur plant response rating” value (cocklebur; [6]) was 2 and the “Plant response rating, Cocklebur” value (cocklebur; [7]) was 0. The “Morningglory plant response rating” value (morningglory; [1]) was 4, the “Morningglory plant response rating” value (morningglory; [2]) was 6 and the “Plant response rating, Morningglory” value (morningglory; [3]) was 10. The “Morningglory plant response rating” value (morningglory; [4]) was 0, the “Morningglory plant response rating” value (morningglory; [5]) was 0 and the “Morningglory plant response rating (0 to 10 scale)” value (morningglory; Preemergence, Rate 250 g/ha) was 0. The “Morningglory plant response rating” value (morningglory; [6]) was 3 and the “Plant response rating, Morningglory” value (morningglory; [7]) was 10.
